Experimental data as given in US20100310484A1, “NOVEL PEPTIDES, USE THEREOF IN COSMETIC AND COSMECEUTIC APPLICATIONS, AND COMPOSITIONS COMPRISING SAME” (Innovactiv Inc., priority 2007, published 2010).
Lip = lipoyl residue of R or S configuration

How the values were obtained:
normal human melanocytes = assay: Comet test: internal photo protection against UVA- and UVB-induced DNA strand breaks; assay type: cell-based; details: peptide 3 × 10^−8 M, 2 h at 37° C., non treated cells 100%, irradiated cells 0%; for CGP (%) coefficient of genomic protection against UVA: then UVA 365 nm, 0.8 J/cm^2; for CGP (%) coefficient of genomic protection against UVB: then UVB 312 nm, 0.06 J/cm^2
Method: The proto protective ability of peptides A1 and B1 against UVA and UVB was evaluated using a Comet test according to the protocol of De Meo (De Meo et al. Mutation Res. 1991; 260; 295-306).
The comet test enables the quantification of DNA strand breaks induced by a genotoxic agent.
Material: Primary culture of normal human melanocytes.
Treatment: Cells were treated for 2 h at 37° C. with peptides A1 and B1 separately at 3×10^−8 M and then exposed to UVA (365 nm, 0.8 J/cm^2) or UVB (312 nm/0.06 J/cm^2).
Results are reported in Table 1 below as a coefficient of genomic protection against UVA or UVB (CGP %).

Keratinocytes NCTC-2544 = assay: UVA-induced oxidative lesions (formation of 8-oxo D guanosine) in keratinocytes; assay type: cell-based, human; details: 24 h + 30 min re-stimulation, UVA 15 J/cm^2, UVA-irradiated cells 100%, non treated cells 0%
Method: Material: Keratinocytes NCTC-2544.
Treatment: Keratinocytes were incubated with either peptide (A1 or B1) for 24 h, re-stimulated with the same peptide for 30 minutes and then irradiated with UVA (15 J/cm^2).
Results: The cells exposed to UVs are subjected to damages/lesions induced by oxidative stress. The oxydative damages or lesions were monitored with the formation of 8-oxo D guanosine and the effect of the peptides was expressed as a percentage of inhibition of the production of oxidative damages/lesions.

glutathione = assay: Glutathione regeneration in the presence of a superoxide anion by fluorometry (HRP/scopoletine); assay type: biochemical; details: glutathione 10^−4 to 5×10^−5 M with or without peptide 10^−4 to 5×10^−5 M, HRP 3 μg/ml, reading at 180 seconds
From the text: Peroxydase (Horseradish peroxydase or HRP) transforms H2O2 into O2^•− which reacts on fluorescent scopoletine and transforms it into a non fluorescent species. A rapid decrease in fluorescence is observed as a function of O2^•− release. In the presence of a scavenger for radical O2^•− (such as glutathione), the decrease in fluorescence is less pronounced. (Antioxidant Characterisation, Methodology and Mechanism, Barry Halliwell, Biochemical Pharmacology, 49, 1341-1348, (1995)) and (The scopoletin assay for hydrogen peroxide, a review and a better method, Jean T. Corbett, J. Biochem. Biophys. Methods, 18, 297-308 (1989)).
Material: A fluorometer set at 394 nm (excitation state) with a slot of 6, and 455 nm (emitting state) with a slot of 8 was used. Continuous data collection was made over a period of 180 seconds. The data obtained at the end of 180 seconds was compared to that obtained with a negative control (without scavenger) and that with a positive control (without free radicals).
The tested mixture comprised HRP (3 μg/ml), scopoletine (5×10^−6M), glutathione (10^−4 to 5×10^−5M), with or without peptide B1 (10^−4 to 5×10^−5 M). An oxygenated water (H2O2) solution was added immediately before reading the first fluorescence measure.
Results are presented in FIG. 3 and are expressed as the percentage of radical scavenging activity as compared to the positive control. […]

[1] = tested on: IL-1α-induced IL-8 production; assay: Inhibition of IL-1α-induced IL-8 production (ELISA) in normal human dermal fibroblasts; assay type: cell-based; details: concomitant with IL-1α for 24 hours

| Substance | CGP (%) coefficient of genomic protection against UVA (normal human melanocytes) [%] | CGP (%) coefficient of genomic protection against UVB (normal human melanocytes) [%] | % INHIBITION of the production of oxidative damages/lesions (Keratinocytes NCTC-2544; peptide 1 nM) [%] | % INHIBITION of the production of oxidative damages/lesions (Keratinocytes NCTC-2544; peptide 100 nM) [%] | glutathione regeneration activity (radical scavenging activity compared to positive control) (glutathione) | INHIBITION of IL-8 production ([1]; peptide 10 pM) [%] | INHIBITION of IL-8 production ([1]; peptide 1 nM) [%] |
| --- | --- | --- | --- | --- | --- | --- | --- |
| Lip-His-DPhe-Arg-Trp-NH2 [Peptide B1] | 69.9 | 85.8 | −50 | −76 | displayed a glutathione regeneration activity | 56 | 60 |
| Lip-Lys-Gly-His-Lys-NH2 (Lip-KGHK-NH2) [Peptide A1] | 93 | 46.2 | −27 | −53 | – | – | – |
